Drawing on ChEMBL document CHEMBL2176976, “Ethylenediamine diacetate (EDDA) mediated synthesis of aurones under ultrasound: their evaluation as inhibitors of SIRT1” (Bioorg Med Chem Lett, 2012), this text covers inhibition of growth, inhibition and IC50 for five compounds.

What is called inhibition is how much of the control response was suppressed. As a reminder, the pIC50 is −log10 of the IC50, conventionally taken in molar units. A low value points to a large IC50.

Each structure is given as a SMILES string. pIC50: −log10 of the molar value.

One experiment relates to MCF7. In words: Cytotoxicity against human MCF7 cells assessed as growth inhibition at 10 uM after 24 hrs by MTT assay (reference value: 0.15 %). Type of experiment: functional. The settings on record: MCF7, 24 h, read-out: GI. On the technique in general: Formazan colour is commonly taken as a measure of viable cells.
A further experiment relates to MDA-MB-231. In words: Cytotoxicity against human MDA-MB-231 cells assessed as growth inhibition at 10 uM after 24 hrs by MTT assay (reference value: 0.23 %). Particulars: MDA-MB-231, 24 h, read-out: GI. Type of experiment: functional.
Experiment [1] concerns the target T1, NAD-dependent protein deacetylase sirtuin-1 (Homo sapiens) (UniProt Q96EB6).
T1 sequence (whole entry): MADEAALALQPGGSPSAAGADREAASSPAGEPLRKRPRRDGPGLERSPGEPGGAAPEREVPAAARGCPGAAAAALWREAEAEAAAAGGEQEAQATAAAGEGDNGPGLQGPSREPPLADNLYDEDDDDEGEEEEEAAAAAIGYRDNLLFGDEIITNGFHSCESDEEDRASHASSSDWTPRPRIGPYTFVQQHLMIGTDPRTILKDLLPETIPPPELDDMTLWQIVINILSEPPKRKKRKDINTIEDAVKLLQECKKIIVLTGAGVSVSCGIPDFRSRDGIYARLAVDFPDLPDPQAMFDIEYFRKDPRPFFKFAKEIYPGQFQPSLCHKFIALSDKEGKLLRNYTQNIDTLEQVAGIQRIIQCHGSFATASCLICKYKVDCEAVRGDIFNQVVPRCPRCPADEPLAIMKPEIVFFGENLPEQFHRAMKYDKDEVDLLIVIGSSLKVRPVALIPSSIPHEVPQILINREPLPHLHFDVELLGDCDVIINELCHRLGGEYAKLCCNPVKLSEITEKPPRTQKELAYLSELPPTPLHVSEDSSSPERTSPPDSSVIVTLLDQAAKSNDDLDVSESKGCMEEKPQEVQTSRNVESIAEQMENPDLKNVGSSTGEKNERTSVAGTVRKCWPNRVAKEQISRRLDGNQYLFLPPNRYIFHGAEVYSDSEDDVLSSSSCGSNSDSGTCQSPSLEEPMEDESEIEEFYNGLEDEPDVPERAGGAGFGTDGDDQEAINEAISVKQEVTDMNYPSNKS
In words: Inhibition of full length recombinant human SIRT1 expressed in Escherichia coli BL21 (DE3) PLysS using Fluor-de-Lys as substrate at 10 uM by fluorimetric assay.

The target of experiment [2] is T2, NAD-dependent protein deacetylase sirtuin-2 (Homo sapiens, UniProt Q8IXJ6).
T2 sequence (Q8IXJ6 whole entry): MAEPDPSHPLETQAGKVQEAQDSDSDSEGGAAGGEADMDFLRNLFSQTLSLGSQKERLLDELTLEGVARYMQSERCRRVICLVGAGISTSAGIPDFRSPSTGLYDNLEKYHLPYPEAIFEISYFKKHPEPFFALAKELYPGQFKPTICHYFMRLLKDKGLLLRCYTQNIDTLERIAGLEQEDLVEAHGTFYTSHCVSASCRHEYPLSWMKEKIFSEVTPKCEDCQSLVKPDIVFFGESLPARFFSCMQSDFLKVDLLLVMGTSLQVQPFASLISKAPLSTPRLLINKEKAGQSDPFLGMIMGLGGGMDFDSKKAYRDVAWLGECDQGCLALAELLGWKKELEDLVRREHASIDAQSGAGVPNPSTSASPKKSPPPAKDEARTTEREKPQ
In words: Inhibition of human SIRT2.

On to `O=C1/C(=C/c2ccc(Br)cc2)Oc2ccccc21`, for which the values for the inhibition of growth at 10 µM in the experiment with MCF7 and in the experiment with MDA-MB-231 were 34.5% and 30.8%, respectively. In experiment [1], the inhibition stood at 71%.
For the compound `Cc1ccc(C(=O)Nc2ccc(S(=O)(=O)O)c3cc(S(=O)(=O)O)cc(S(=O)(=O)O)c23)cc1NC(=O)c1cccc(NC(=O)Nc2cccc(C(=O)Nc3cc(C(=O)Nc4ccc(S(=O)(=O)O)c5cc(S(=O)(=O)O)cc(S(=O)(=O)O)c45)ccc3C)c2)c1` [SURAMIN], the inhibition of growth at 10 µM in the experiment with MCF7 was 32%; in the experiment with MDA-MB-231, 26%.
In the case of `O=C1/C(=C/c2ccc(F)cc2)Oc2ccccc21`, the inhibition of growth at 10 µM in the experiment with MCF7 was found to be 20.1%; in the experiment with MDA-MB-231, 16.5%. The inhibition in experiment [1] was determined as 50.5%.
Take `COc1ccc(/C=C2\Oc3ccccc3C2=O)cc1` [4'-METHOXY-AURONE]: the inhibition of growth at 10 µM stood at 29.6% in the experiment on MCF7 and 18.1% with MDA-MB-231. Further, in experiment [1], the inhibition was 32.5%.
For the compound `O=C1NC(=S)NC(=O)C1=Cc1cccc2ccccc12`, the pIC50 in experiment [2] was 5.00.
